The values below come from patent publication US9670217B2, “Process for preparing chlorins and their pharmaceutical uses” (UNIVERSIDADE DE COIMBRA, priority 2008, dated 2017).

Series [1] has as its system S91 Cloudman melanoma. The experiment in a line: PDT of implanted S91 tumors. In kind it is in vivo, DBA/2 mice. An excerpt:
(§1) The mice used in the present study were form two sources. Dark toxicity, biodistribution and farmacokinetic studies employed DBA/2 mice, weighing 20-30 g, from the animal breeding facility at the Faculty of Biochemistry, Biophysics and Biotechnology, Jagiellonian University, Krakow. The mice were kept on a standard laboratory diet with free access to drinking water. The use of such animals for experimental purposes was approved by the Jagiellonian University Committee for Ethics of Experiments on Animals (decision No. 384/99). Such mice were also employed in PDT.
The tumors grew to reach 5 mm in about one week after the implantation. No spontaneous necrosis was observed. The treatment was initiated when the tumor attained 5 mm in diameter in each animal. The day the tumors reached the treatment size, the mice were injected via i.p. with a dose of 10 mg/kg of Luzitin-C12Et in PEG400. At 24 h post-injection, the mice were anesthetized with ketamine and xylazine, and restrained in plastic holders, then treated with different light doses with the Hamamatsu 748 nm diode laser described before. […] The mice were checked daily, and the size of the tumors was measured and recorded.

The nature of series [2]: In vivo toxicity in the dark. Set-up: species or system DBA/2 mice. The conditions noted are these: for sensitivity to light: first 6 days.
From the text: as §1
The mice were divided into the following experimental groups:
The solutions of Luzitin-Cl (0.5 ml) were injected subcutaneously and for 30 days the animals were closely observed. […] They manifested such sensitivity by moving away from light sources directly pointed at them. […] After 30 days the animals were anaesthetized using Morbital (Biowet, Poland), their organs and tissue samples were excised, and blood morphology as well as histology of selected organs tests was performed.

For series [3], the system named is MCF7 (human breast carcinoma). The series can be described thus: Cell photosensitization, filtered halogen lamp, MTT. In kind it is cell-based. How it is done:
(§2) Irradiation in in vitro experiments was performed using either a halogen lamp or a laser source. In the first case, a 500 W halogen lamp was placed 50 cm from the irradiated plate to insure a homogeneous irradiation. A cooled water filter (d=35 mm) and a 600 nm cut off filter were placed between the lamp and samples. The fluence rate reaching samples was 3 mW/cm^2. The emission spectrum of the halogen lamp was recorded using a spectroradiometer IL2000 (Spectrocube), FIG. 1. In the second case, three Lynx external cavity diode lasers TEC 500 powered by PilotPC 500 Laser Controllers (Sacher Lasertechnik, Marburg, Germany) were employed. The laser energies were stable at 40 mW for the 748 nm laser, 10 mW for the 649 laser and 10 mW for the 633 laser. The laser energies were regularly measured with a Coherent LaserCheck. In some in vitro experiments, the laser light was focused on an optical fiber through a collimator in microbench, and delivered to the cells. This system reduced the 748 nm laser light to 30 mW.
(§3) The cell lines employed in halogen lamp irradiation were the MCF7 (human breast carcinoma), SKMEL 188 (human melanoma) and S91/I3 (mouse melanoma) cells. They were used both for cytotoxicity and photocytotoxicity experiments. MCF7 cells were grown supplemented with 10% fetal calf (FBS) serum, 25 units/ml of penicillin, and 25 μg/ml of streptomycin. Human melanoma cells SKMEL-188 were grown in F10 medium supplemented with 10% fetal calf serum (FCS), 100 units/ml of penicillin, and 100 μg/ml of streptomycin. I3 subline of Cloudman S91 melanoma cells were cultured in RPMI 1640 medium supplemented with 100 units/ml of penicillin, 100 μg/ml streptomycin and 5% fetal calf serum (FCS) (Gibco BRL). All cell lines were cultivated as monolayer in Petri dishes of 60 mm diameter and incubated at 37° C. in a humid atmosphere containing 5% CO2.
(§4) Cytotoxicity. Cell metabolic efficiency and viability were determined by the uptake and reduction of 3-(4,5-dimethylthiazol-2-yl)-2,5-diphenyl tetrazolium bromide (MTT) to an insoluble formazan dye by cellular microsomal enzymes. The cell lines were grown in RPMI medium with 10% fetal calf serum, penicillin and streptomycin. Cells were maintained in 5% CO2, 95% air and 100% humidity. For determining cytotoxicity, these cells were plated in 96-well plates at a density of 1×10^4 cells well in complete media. After 24 h, the cells were incubated with photosensitizers at different concentrations (0.25 up to 50 μM) for 18 hours at 37° C. The cells were then washed twice with PBS and incubated in growth medium at 37° C. for 24 h. Next, the medium was replaced by 100 μl of fresh medium and 20 μl of MTT, and the cells were incubated with MTT for 3 h, with a final concentration of 0.5 mg/ml. Then the culture medium was replaced with DMSO-methanol solution (1:1) to dissolve the blue formazan crystals. The 96-well culture plate was shaken for 0.5 min at room temperature and immediately read for optical density at 560 nm using an ELISA reader (GENios Plus; Tecan Trading AG, Switzerland). The cell survival was expressed by the absorbance changes of the formazan salt, and survival rate was given as the percent ratio of viable treated cells vs. the number of viable untreated cells. Number of cells was determined from linear regression of a calibration curve.
(§5) Cell photosensitization. SKMEL 188, S91 and MCF7 cells were prepared as described above. […] The cells were incubated for 12 h at 37° C. and then irradiated at a 0.53 mW cm^2 fluence rate and in doses ranging from 0.1 to 0.64 J cm^2. We recall that photosensitizer uses only ca. ⅕ of the available fluence rate of the filtered halogen lamp. The MTT test was performed 24 h after irradiation. The values were obtained from three independent experiments and expressed as percent of cell survival with reference to control cells, which were manipulated in the same manner but without incubation with photosensitizer and without illumination. […]

The test system of series [4] is S91 (mouse melanoma). The description is as above. Format: cell-based. Particulars: [Luzitin-Cl] = 20 μM. As for the experimental part: as §2, §3, §4, §5
The conditions of series [5]: minipig.
[6] abbreviates: [Luzitin-Cl] = 20 μM, filtered halogen lamp.

As for `CCNS(=O)(=O)c1ccc(Cl)c(-c2c3nc(c(-c4c(Cl)ccc(S(=O)(=O)NCC)c4Cl)c4ccc([nH]4)c(-c4c(Cl)ccc(S(=O)(=O)NCC)c4Cl)c4nc(c(-c5c(Cl)ccc(S(=O)(=O)NCC)c5Cl)c5ccc2[nH]5)CC4)CC3)c1Cl` [Luzitin-Cl2Et, 5,10,15,20-tetrakis(2,6-dichloro-3-N-ethylsulfamoylphenyl)bacteriochlorin], in series [1] (10 mg/kg i.p. in PEG400, 24 h post-injection, 748 nm laser, single session), the “tumor response after PDT” value was “long-lasting tumor regression”. Moreover, the “necrosis of irradiated tumor area” value in series [1] (within minutes of the irradiation) was “evident signals of necroses”.
Consider `O=S(=O)(O)c1ccc(Cl)c(-c2c3nc(c(-c4cc(S(=O)(=O)O)ccc4Cl)c4ccc([nH]4)c(-c4cc(S(=O)(=O)O)ccc4Cl)c4nc(c(-c5cc(S(=O)(=O)O)ccc5Cl)c5ccc2[nH]5)CC4)CC3)c1` [Luzitin-Cl, 5,10,15,20-tetrakis(2-chloro-5-sulfonylphenyl)bacteriochlorin], for which the sensitivity to light result is recorded as “slight sensitivity” in series [2] (15 mg/kg subcutaneous, some animals) and “revealed sensitivity to the light” in series [2] (20 mg/kg subcutaneous). Further, the body mass changes entry in series [2] (2-20 mg/kg subcutaneous, 30 days) was “no significant mass changes were observed”. Also, the “blood morphology and histology of selected organs” value in series [2] (2-20 mg/kg subcutaneous, after 30 days) was “No changes were observed in the blood or in organs”. Besides, the cell kill in series [3] (5 μM, filtered halogen light 0.6 J/cm^2, 12 h incubation) was 100%. Also, the “LD50 (light dose to kill 50% of the cells)” value in series [3] (setting [6]) is recorded as 0.08 J/cm^2; in series [4], 0.15 J/cm^2. Further, the “LD90 (light dose to kill 90% of the cells)” value in series [3] (setting [6]) amounted to 0.25 J/cm^2; in series [4], 0.3 J/cm^2.
With `CNS(=O)(=O)c1ccc(F)c(-c2c3nc(c(-c4cc(S(=O)(=O)NC)ccc4F)c4ccc([nH]4)c(-c4cc(S(=O)(=O)NC)ccc4F)c4nc(c(-c5cc(S(=O)(=O)NC)ccc5F)c5ccc2[nH]5)CC4)CC3)c1` [Luzitin-FMet, 5,10,15,20-tetrakis(2-fluoro-5-N-methylsulfamoylphenyl)bacteriochlorin], in series [5], the “depth of diffusion through stratum corneum and epidermis” value amounted to 50 microns; the “time to diffuse through all the epidermis” value is no more than 3 h. In addition, in series [5] (in vivo), the “side effects of topical gel formulation” value is “None of the animals, and in particular the animal that remained alive, showed evidence for side effects”.
